Target: T1, TNKS1 (Homo sapiens, UniProt O95271)
T1 sequence (O95271 1-1327): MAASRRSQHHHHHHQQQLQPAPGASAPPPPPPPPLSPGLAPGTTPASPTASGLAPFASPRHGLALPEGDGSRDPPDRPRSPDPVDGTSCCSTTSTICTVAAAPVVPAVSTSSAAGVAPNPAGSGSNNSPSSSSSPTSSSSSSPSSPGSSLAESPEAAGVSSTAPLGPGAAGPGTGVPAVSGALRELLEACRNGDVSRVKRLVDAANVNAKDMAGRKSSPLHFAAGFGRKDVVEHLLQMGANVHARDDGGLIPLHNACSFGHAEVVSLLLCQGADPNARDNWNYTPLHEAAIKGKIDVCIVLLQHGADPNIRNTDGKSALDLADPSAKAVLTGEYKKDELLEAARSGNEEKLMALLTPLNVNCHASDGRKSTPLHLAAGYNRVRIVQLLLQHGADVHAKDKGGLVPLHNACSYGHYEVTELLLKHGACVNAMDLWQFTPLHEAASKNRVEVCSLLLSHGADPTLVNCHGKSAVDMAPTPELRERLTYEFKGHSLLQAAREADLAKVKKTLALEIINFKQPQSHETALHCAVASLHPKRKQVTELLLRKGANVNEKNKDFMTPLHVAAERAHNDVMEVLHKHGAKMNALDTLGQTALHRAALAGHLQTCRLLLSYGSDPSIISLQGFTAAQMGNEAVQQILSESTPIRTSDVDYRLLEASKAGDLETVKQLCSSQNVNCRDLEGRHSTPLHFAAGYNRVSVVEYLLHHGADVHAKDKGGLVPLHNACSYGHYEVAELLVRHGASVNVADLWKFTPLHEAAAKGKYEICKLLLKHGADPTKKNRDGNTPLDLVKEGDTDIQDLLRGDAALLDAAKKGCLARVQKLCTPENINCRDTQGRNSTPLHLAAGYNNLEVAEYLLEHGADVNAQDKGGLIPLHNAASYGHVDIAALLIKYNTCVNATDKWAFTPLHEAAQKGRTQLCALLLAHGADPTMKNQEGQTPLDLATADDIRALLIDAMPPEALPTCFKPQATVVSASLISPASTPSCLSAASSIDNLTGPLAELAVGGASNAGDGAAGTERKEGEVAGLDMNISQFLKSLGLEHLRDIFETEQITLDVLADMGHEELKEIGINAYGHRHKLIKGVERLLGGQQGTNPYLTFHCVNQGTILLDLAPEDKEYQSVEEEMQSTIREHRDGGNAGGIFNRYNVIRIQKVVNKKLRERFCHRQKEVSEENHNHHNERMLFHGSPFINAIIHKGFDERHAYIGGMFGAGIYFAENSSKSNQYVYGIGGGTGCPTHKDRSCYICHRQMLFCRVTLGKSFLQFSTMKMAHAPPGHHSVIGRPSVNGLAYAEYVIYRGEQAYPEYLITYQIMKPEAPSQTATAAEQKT
Experiment: Modified TNKS1 Assay 2 (auto-parsylation, [3H]-NAD+ SPA)
Format: biochemical
Details: 6 nM TNKS1, 96 well

Question: Which IC50 does the source give for `CC(CN1CCOCC1)NC(=O)c1[nH]cnc1C(=O)Nc1ccc(NC(=O)c2ccc(F)cc2Cl)cc1` (single isomer, unassigned; enantiomer 2) [Example 270, N^4-{4-[(2-chloro-4-fluorobenzoyl)amino]phenyl}-N^5-[1-(morpholin-4-yl)propan-2-yl]-1H-imidazole-4,5-dicarboxamide (enantiomer 2)] here?
Answer: 4 nM

Question: With `O=C(Nc1ccc(NC(=O)c2[nH]cnc2C(=O)NCCC2CCCC2)cc1)c1ccc(F)cc1Cl` [Example 42, N^5-{4-[(2-chloro-4-fluorobenzoyl)amino]phenyl}-N^4-(2-cyclopentylethyl)-1H-imidazole-4,5-dicarboxamide] as the compound, how does the IC50 read?
Answer: > 10000 nM

Question: With `O=C(Nc1ccc(NC(=O)c2[nH]cnc2C(=O)NCCC2CC2)cc1)c1ccc(F)cc1Cl` [Example 43, N^5-{4-[(2-chloro-4-fluorobenzoyl)amino]phenyl}-N^4-(2-cyclopropylethyl)-1H-imidazole-4,5-dicarboxamide] as the compound, how does the IC50 read?
Answer: 9200 nM

Question: How did the IC50 turn out when `O=C(Nc1ccc(NC(=O)c2[nH]cnc2C(=O)NC2CC2)cc1)c1cc(F)c(F)cc1Cl` [Example 51, N^5-{4-[(2-chloro-4,5-difluorobenzoyl)amino]phenyl}-N^4-cyclopropyl-1H-imidazole-4,5-dicarboxamide] was run?
Answer: 20 nM

Question: For `O=C(Nc1ccc(NC(=O)c2[nH]cnc2C(=O)N2CC3(COC3)C2)cc1)c1cc(F)c(F)cc1Cl` [Example 52, N-{4-[(2-chloro-4,5-difluorobenzoyl)amino]phenyl}-4-(2-oxa-6-azaspiro[3.3]hept-6-ylcarbonyl)-1H-imidazole-5-carboxamide], which IC50 is on record?
Answer: 30 nM

Question: With `CS(=O)(=O)c1ccc(C(=O)Nc2ccc(NC(=O)c3[nH]cnc3C(=O)NCCN3CCCCC3)cc2)c(Cl)c1` [Example 53, N^5-(4-{[2-chloro-4-(methylsulfonyl)benzoyl]amino}phenyl)-N^4-[2-(piperidin-1-yl)ethyl]-1H-imidazole-4,5-dicarboxamide] as the compound, how does the IC50 read?
Answer: 20 nM

Question: With `CNC(=O)c1nc[nH]c1C(=O)Nc1ccc(NC(=O)c2ccc(S(C)(=O)=O)cc2Cl)cc1` [Example 55, N^5-(4-{[2-chloro-4-(methylsulfonyl)benzoyl]amino}phenyl)-N^4-methyl-1H-imidazole-4,5-dicarboxamide] as the compound, how does the IC50 read?
Answer: 120 nM

Question: For `CNC(=O)c1nc[nH]c1C(=O)Nc1ccc(NC(=O)c2ccc(F)cc2I)cc1` [Example 61, N^5-{4-[(4-fluoro-2-iodobenzoyl)amino]phenyl}-N^4-methyl-1H-imidazole-4,5-dicarboxamide], which IC50 is on record?
Answer: 30 nM

Question: Which IC50 does the source give for `CNC(=O)c1nc[nH]c1C(=O)Nc1ccc(NC(=O)c2cc(OC(F)(F)F)ccc2Br)cc1` [Example 64, N^5-(4-{[2-bromo-5-(trifluoromethoxy)benzoyl]amino}phenyl)-N^4-methyl-1H-imidazole-4,5-dicarboxamide] here?
Answer: > 10000 nM

Question: `CCc1nc(C(=O)Nc2ccc(NC(=O)c3ccc(F)cc3Cl)cc2)c(C(=O)NC)[nH]1` [Example 68, N^4-{4-[(2-chloro-4-fluorobenzoyl)amino]phenyl}-2-ethyl-N^5-methyl-1H-imidazole-4,5-dicarboxamide] was tested. Which IC50 did it give?
Answer: > 10000 nM

Question: `COC(=O)c1nc[nH]c1C(=O)Nc1ccc(NC(=O)c2ccc(F)cc2Cl)c(F)c1` [Example 71, methyl 5-({4-[(2-chloro-4-fluorobenzoyl)amino]-3-fluorophenyl}carbamoyl)-1H-imidazole-4-carboxylate] was tested. Which IC50 did it give?
Answer: 100 nM

Question: `CN(C)CCNC(=O)c1nc[nH]c1C(=O)Nc1ccc(NC(=O)c2ccc(F)cc2)c(F)c1` [Example 77, N^4-[2-(dimethylamino)ethyl]-N^5-{3-fluoro-4-[(4-fluorobenzoyl)amino]phenyl}-1H-imidazole-4,5-dicarboxamide] was tested. Which IC50 did it give?
Answer: 990 nM

Question: Which IC50 does the source give for `O=C(Nc1ccc(NC(=O)c2[nH]cnc2C(=O)NCCN2CCCCC2)cc1F)c1ccc(F)cc1` [Example 78, N^5-{3-fluoro-4-[(4-fluorobenzoyl)amino]phenyl}-N^4-[2-(piperidin-1-yl)ethyl]-1H-imidazole-4,5-dicarboxamide] here?
Answer: > 10000 nM

Question: How did the IC50 turn out when `CNC(=O)c1nc[nH]c1C(=O)Nc1ccc(NC(=O)c2ccccc2Cl)c(F)c1` [Example 80, N^5-{4-[(2-chlorobenzoyl)amino]-3-fluorophenyl}-N^4-methyl-1H-imidazole-4,5-dicarboxamide] was run?
Answer: 690 nM

Question: `CN(C)CCNC(=O)c1nc[nH]c1C(=O)Nc1ccc(NC(=O)c2ccccc2Cl)c(F)c1` [Example 81, N^5-{4-[(2-chlorobenzoyl)amino]-3-fluorophenyl}-N^4-[2-(dimethylamino)ethyl]-1H-imidazole-4,5-dicarboxamide] was tested. Which IC50 did it give?
Answer: 60 nM

Question: Which IC50 does the source give for `Cc1cc(NC(=O)c2[nH]cnc2C(=O)NCCN(C)C)ccc1NC(=O)c1ccc(F)cc1Cl` [Example 84, N^5-{4-[(2-chloro-4-fluorobenzoyl)amino]-3-methylphenyl}-N^4-[2-(dimethylamino)ethyl]-1H-imidazole-4,5-dicarboxamide] here?
Answer: 170 nM

Question: Which IC50 does the source give for `Cc1cc(NC(=O)c2[nH]cnc2C(=O)NCCN2CCCCC2)ccc1NC(=O)c1ccc(F)cc1Cl` [Example 85, N^5-{4-[(2-chloro-4-fluorobenzoyl)amino]-3-methylphenyl}-N^4-[2-(piperidin-1-yl)ethyl]-1H-imidazole-4,5-dicarboxamide] here?
Answer: 9 nM

Question: `CCNC(=O)c1nc[nH]c1C(=O)Nc1ccc(NC(=O)c2cccc(OC)c2Cl)cc1` [Example 260, N^5-{4-[(2-chloro-3-methoxybenzoyl)amino]phenyl}-N^4-ethyl-1H-imidazole-4,5-dicarboxamide] was tested. Which IC50 did it give?
Answer: 3000 nM

Question: `CCNC(=O)c1nc[nH]c1C(=O)Nc1ccc(NC(=O)c2ncccc2Cl)cc1` [Example 261, N^5-(4-{[(3-chloropyridin-2-yl)carbonyl]amino}phenyl)-N^4-ethyl-1H-imidazole-4,5-dicarboxamide] was tested. Which IC50 did it give?
Answer: 230 nM

Question: How did the IC50 turn out when `O=C(Nc1ccc(NC(=O)c2nc[nH]c2C(=O)N[C@H]2CCNC2)cc1)c1ccc(F)cc1Cl` [Example 281, N^4-{4-[(2-chloro-4-fluorobenzoyl)amino]phenyl}-N^5-[(3S)-pyrrolidin-3-yl]-1H-imidazole-4,5-dicarboxamide] was run?
Answer: 60 nM

Question: For `NCCNC(=O)c1[nH]cnc1C(=O)Nc1ccc(NC(=O)c2ccc(F)cc2Cl)cc1` [Example 290, N^5-(2-aminoethyl)-N^4-{4-[(2-chloro-4-fluorobenzoyl)amino]phenyl}-1H-imidazole-4,5-dicarboxamide], which IC50 is on record?
Answer: 40 nM

Question: For `O=C(Nc1ccc(NC(=O)c2nc[nH]c2C(=O)NCCN2CCCCC2)cc1OC(F)(F)F)c1ccc(F)cc1Cl` [Example 293, N^4-{4-[(2-chloro-4-fluorobenzoyl)amino]-3-(trifluoromethoxy)phenyl}-N^5-[2-(piperidin-1-yl)ethyl]-1H-imidazole-4,5-dicarboxamide], which IC50 is on record?
Answer: 80 nM

Question: How did the IC50 turn out when `CC(CN1CCOCC1)NC(=O)c1[nH]cnc1C(=O)Nc1ccc(NC(=O)c2ccc(F)cc2)cc1` (stereo not shown) [Example 294, N^4-{4-[(4-fluorobenzoyl)amino]phenyl}-N^5-[1-(morpholin-4-yl)propan-2-yl]-1H-imidazole-4,5-dicarboxamide] was run?
Answer: 210 nM

Question: Which IC50 does the source give for `CNC(=O)c1nc[nH]c1C(=O)Nc1ccc(NC(=O)c2ccc(C#N)cc2)cc1` [Example 322, N^5-{4-[(4-cyanobenzoyl)amino]phenyl}-N^4-methyl-1H-imidazole-4,5-dicarboxamide] here?
Answer: 1000 nM

Question: `CNC(=O)c1nc[nH]c1C(=O)Nc1ccc(NC(=O)c2ccc(Br)cc2Cl)cc1` [Example 334, N^5-{4-[(4-bromo-2-chlorobenzoyl)amino]phenyl}-N^4-methyl-1H-imidazole-4,5-dicarboxamide] was tested. Which IC50 did it give?
Answer: 60 nM

Question: For `CNC(=O)c1nc[nH]c1C(=O)Nc1ccc(NC(=O)c2ccc(F)c(Cl)c2)cc1` [Example 340, N^5-{4-[(3-chloro-4-fluorobenzoyl)amino]phenyl}-N^4-methyl-1H-imidazole-4,5-dicarboxamide], which IC50 is on record?
Answer: > 10000 nM

Question: Which IC50 does the source give for `CNC(=O)c1nc[nH]c1C(=O)Nc1ccc(NC(=O)c2c(F)cc(F)cc2F)cc1` [Example 342, N^4-methyl-N^5-{4-[(2,4,6-trifluorobenzoyl)amino]phenyl}-1H-imidazole-4,5-dicarboxamide] here?
Answer: 640 nM

Question: For `CNC(=O)c1nc[nH]c1C(=O)Nc1ccc(NC(=O)c2c(C)cccc2Cl)cc1` [Example 343, N^5-{4-[(2-chloro-6-methylbenzoyl)amino]phenyl}-N^4-methyl-1H-imidazole-4,5-dicarboxamide], which IC50 is on record?
Answer: 2000 nM

From patent US9884063B2, “Amido-substituted azole compounds” (Bayer Pharma Aktiengesellschaft, priority 2014, dated 2018)
